How the values were obtained:
isolated mouse hearts = test: Effect on isolated hearts according to the Langendorff method; settings: read-out: EC50 (Langendorff experiment)
Method: The compounds were tested for their potential to reduce blood pressure and their effect on the contractility of the heart muscle. EC50 values on isolated mouse hearts were determined according to Literature (Doring H J., The isolated perfused heart according to Langendorff technique—function—application, Physiol. Bohemoslov. 1990, 39(6), 481-504; Kligfield P, Horner H, Brachfeld N., A model of graded ischemia in the isolated perfused rat heart, J. Appl. Physiol. 1976 June, 40(6), 1004-8).

human Cav1.2 channel = biological target: T1, human Cav1.2 channel (Homo sapiens, UniProt Q13936); test: In vitro assay L channel (FLIPR, KCl-induced calcium fluorescence); type: cell-based; settings: HEK293 cells expressing human Cav1.2 with β-2a and α2δ-1; 20 mM KCl depolarization; range stated for the group; read-out: IC50 (L channel antagonistic activity)
T1 construct: expressed in transfected cells; host or cells: HEK293
Method: The L channel antagonistic activity (IC50 values) of the compounds of formula (I) is determined in accordance with the following experimental method.
Human embryonic kidney (HEK293) cells expressing the human Cav1.2 channel in addition to the auxiliary subunits β-2a and α2δ-1, are grown in culture medium (DMEM containing 10% heat-inactivated fetal calf serum (FCS), 100 U/ml penicillin, 100 μg/ml streptomycin, 100 μg/ml G418, 40 μg/ml zeocin and 100 μg/ml hygromycin). The cells are seeded at 20,000 cells/well into 384-well black clear bottom sterile plates (poly-L-lysine-coated, Becton Dickinson). The seeded plates are incubated overnight at 37° C. in 5% CO2. The KCl solution is prepared as 80 mM stock solution in assay buffer (HBSS containing 0.1% BSA, 20 mM HEPES, 0.375 g/l NaHCO3, adjusted to pH 7.4 with NaOH) for use in the assay at a final concentration of 20 mM. Antagonists are prepared as 10 mM stock solutions in DMSO, then diluted in 384w plates first in DMSO, then in assay buffer to obtain 3× stocks. On the day of the assay, 25 μl of staining buffer (HBSS containing 20 mM HEPES, 0.375 g/l NaHCO3, and 30 μM of the fluorescent calcium indicator fluo-4 AM (1 mM stock solution in DMSO, containing 10% pluronic) is added to each well of the seeded plate. The 384-well cell-plates are incubated for 60 min at 37° C. in 5% CO2 followed by washing with […] using assay buffer leaving […] of this buffer for equilibration at room temperature (30-60 min). Within the Fluorescent Imaging Plate Reader (FLIPR, Molecular Devices), antagonists are added to the plate in a volume of 25 μl/well, incubated for 3 min and finally 25 μl/well of KCl solution is added for cellular depolarization. Fluorescence is measured for each well at 2 second intervals for 8 minutes, and the area under the curve of each fluorescence peak is compared to the area of the fluorescence peak induced by 20 mM KCl with vehicle in place of antagonist. […]

[1] = system: human Cav3.1 Cav3.2 or Cav3.3 channel; test: In vitro assay T channel (FLIPR, Ca2+-induced calcium fluorescence); type: cell-based; settings: HEK293 cells expressing human Cav3.1, Cav3.2 or Cav3.3; 10 mM Ca2+; subtype not specified in Table 1; read-out: IC50 (T channel antagonistic activity)
Method: The T channel antagonistic activity (IC50 values) of the compounds of formula (I) is determined in accordance with the following experimental method and data are shown in Table 1.
Human embryonic kidney (HEK293) cells expressing the human Cav3.1 Cav3.2 or Cav3.3 channel, respectively, are grown in culture medium (DMEM containing 10% heat-inactivated fetal calf serum (FCS), 100 U/ml penicillin, 100 μg/ml streptomycin and 1 mg/ml G418). The cells are seeded at 20,000 cells/well into 384-well black clear bottom sterile plates (poly-L-lysine-coated, Becton Dickinson). The seeded plates are incubated overnight at 37° C. in 5% CO2. […] On the day of the assay, 25 μl of staining buffer (HBSS containing 20 mM HEPES, 0.375 g/l NaHCO3 and 30 μM of the fluorescent calcium indicator fluo-4 AM (1 mM stock solution in DMSO, containing 10% pluronic) is added to each well of the seeded plate. The 384-well cell-plates are incubated for 60 min at 37° C. in 5% CO2 followed by washing with […] using HBSS containing 0.1% BSA, 20 mM HEPES, 0.375 g/l NaHCO3, leaving […] of this buffer for equilibration at room temperature (30-60 min). Within the Fluorescent Imaging Plate Reader (FLIPR, Molecular Devices), antagonists are added to the plate in a volume of […], incubated for 3 min, and finally […] of Ca^2+solution is added. […]

T1 sequence (Q13936 whole entry): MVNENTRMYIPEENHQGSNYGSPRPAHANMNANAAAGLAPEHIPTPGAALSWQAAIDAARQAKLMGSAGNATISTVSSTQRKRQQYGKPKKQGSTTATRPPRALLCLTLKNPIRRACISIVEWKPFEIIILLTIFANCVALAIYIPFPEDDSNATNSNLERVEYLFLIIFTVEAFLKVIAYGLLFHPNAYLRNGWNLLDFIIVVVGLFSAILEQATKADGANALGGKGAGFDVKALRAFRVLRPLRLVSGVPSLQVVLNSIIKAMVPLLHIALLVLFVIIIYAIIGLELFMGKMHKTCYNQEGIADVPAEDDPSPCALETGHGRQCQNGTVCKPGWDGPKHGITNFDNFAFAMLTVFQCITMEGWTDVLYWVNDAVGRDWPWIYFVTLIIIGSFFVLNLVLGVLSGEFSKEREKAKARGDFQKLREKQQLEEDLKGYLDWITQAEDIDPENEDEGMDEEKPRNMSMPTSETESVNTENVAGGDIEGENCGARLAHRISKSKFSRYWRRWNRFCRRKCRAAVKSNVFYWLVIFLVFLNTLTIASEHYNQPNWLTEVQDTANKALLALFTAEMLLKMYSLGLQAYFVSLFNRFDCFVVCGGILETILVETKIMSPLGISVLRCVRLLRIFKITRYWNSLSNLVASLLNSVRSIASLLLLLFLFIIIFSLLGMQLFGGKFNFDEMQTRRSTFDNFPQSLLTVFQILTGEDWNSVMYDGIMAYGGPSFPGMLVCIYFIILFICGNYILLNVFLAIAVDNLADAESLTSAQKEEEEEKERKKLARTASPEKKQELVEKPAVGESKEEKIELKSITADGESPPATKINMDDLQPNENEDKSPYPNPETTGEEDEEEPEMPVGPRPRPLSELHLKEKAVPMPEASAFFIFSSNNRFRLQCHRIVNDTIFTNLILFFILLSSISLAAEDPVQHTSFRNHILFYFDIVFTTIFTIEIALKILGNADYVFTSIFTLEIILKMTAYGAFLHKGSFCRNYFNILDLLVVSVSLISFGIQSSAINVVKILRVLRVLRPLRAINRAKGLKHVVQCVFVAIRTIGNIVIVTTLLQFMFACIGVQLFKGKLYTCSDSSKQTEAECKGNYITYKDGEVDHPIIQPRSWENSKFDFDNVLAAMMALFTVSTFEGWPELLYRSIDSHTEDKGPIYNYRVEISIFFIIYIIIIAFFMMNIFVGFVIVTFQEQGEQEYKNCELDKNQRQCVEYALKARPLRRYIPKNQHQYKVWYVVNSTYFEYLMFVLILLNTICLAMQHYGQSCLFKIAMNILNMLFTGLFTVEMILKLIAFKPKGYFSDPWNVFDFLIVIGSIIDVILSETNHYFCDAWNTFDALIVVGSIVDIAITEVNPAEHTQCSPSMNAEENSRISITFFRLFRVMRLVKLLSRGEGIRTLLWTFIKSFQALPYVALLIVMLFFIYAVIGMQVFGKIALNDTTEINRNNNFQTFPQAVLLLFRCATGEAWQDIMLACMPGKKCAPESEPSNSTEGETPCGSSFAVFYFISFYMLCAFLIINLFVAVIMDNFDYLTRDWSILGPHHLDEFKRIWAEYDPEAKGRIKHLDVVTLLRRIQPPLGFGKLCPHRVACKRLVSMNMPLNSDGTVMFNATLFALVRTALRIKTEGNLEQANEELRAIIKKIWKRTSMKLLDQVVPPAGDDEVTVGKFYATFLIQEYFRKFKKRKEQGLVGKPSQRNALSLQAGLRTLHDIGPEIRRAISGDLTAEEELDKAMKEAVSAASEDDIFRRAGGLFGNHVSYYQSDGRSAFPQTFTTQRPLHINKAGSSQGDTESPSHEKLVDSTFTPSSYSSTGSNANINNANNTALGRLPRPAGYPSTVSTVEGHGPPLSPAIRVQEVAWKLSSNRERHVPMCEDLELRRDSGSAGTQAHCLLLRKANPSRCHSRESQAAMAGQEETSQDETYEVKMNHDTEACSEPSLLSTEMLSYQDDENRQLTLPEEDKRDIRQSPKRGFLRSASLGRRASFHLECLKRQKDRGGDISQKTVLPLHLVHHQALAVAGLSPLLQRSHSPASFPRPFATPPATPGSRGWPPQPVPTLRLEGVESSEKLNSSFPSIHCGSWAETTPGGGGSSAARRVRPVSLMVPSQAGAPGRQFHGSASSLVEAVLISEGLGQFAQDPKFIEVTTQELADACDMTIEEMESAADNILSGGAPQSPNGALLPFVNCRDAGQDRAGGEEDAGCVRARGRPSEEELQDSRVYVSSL

In the case of COc1ccc(OC)c2[nH]c(CCCN(C)CC[C@]3(OC(=O)C(C)C)C[C@H]4CC[C@@H]3C=C4c3ccccc3)nc12 (racemic) [Example 1A, rac-Isobutyric acid (1R*,2R*,4R*)-2-(2-{[3-(4,7-dimethoxy-1H-benzoimidazol-2-yl)-propyl]-methyl-amino}-ethyl)-5-phenyl-bicyclo[2.2.2]oct-5-en-2-yl ester], the EC50 (isolated mouse hearts) is reported as 5 nM and the IC50 (human Cav1.2 channel) is reported as 156 to 439 nM.

COc1ccc(OC)c2[nH]c(CCCN(C)CC[C@]3(OC(=O)C(C)C)C[C@H]4CCC[C@@H]3C=C4c3ccccc3)nc12 (racemic) [Example 4A, rac-Isobutyric acid (1R*,5R*,6R*)-6-(2-{[3-(4,7-dimethoxy-1H-benzoimidazol-2-yl)-propyl]-methyl-amino}-ethyl)-8-phenyl-bicyclo[3.2.2]non-8-en-6-yl ester] was tested, and the IC50 (human Cav1.2 channel) was 156 to 439 nM.

Molecule COc1ccc(OC)c2[nH]c(CCCN(C)CCC3(OC(=O)C(C)C)CC4CCC3C=C4c3ccccc3)nc12 (single isomer, unassigned) [Example 2A, Isobutyric acid (1R,2R,4R)-2-(2-{[3-(4,7-dimethoxy-1H-benzoimidazol-2-yl)-propyl]-methyl-amino}-ethyl)-5-phenyl-bicyclo[2.2.2]oct-5-en-2-yl ester or isobutyric acid (1S,2S,4S)-2-(2-{[3-(4,7-dimethoxy-1H-benzoimidazol-2-yl)-propyl]-methyl-amino}-ethyl)-5-phenyl-bicyclo[2.2.2]oct-5-en-2-yl ester] has an IC50 [1] of 778 nM and an IC50 (human Cav1.2 channel) of 156 to 439 nM.

COc1ccc(OC)c2[nH]c(CCCN(C)CCC3(OC(=O)C(C)C)CC4CCC3C=C4c3ccccc3)nc12 (single isomer, unassigned) [Example 3A, Isobutyric acid (1R,2R,4R)-2-(2-{[3-(4,7-dimethoxy-1H-benzoimidazol-2-yl)-propyl]-methyl-amino}-ethyl)-5-phenyl-bicyclo[2.2.2]oct-5-en-2-yl ester or isobutyric acid (1S,2S,4S)-2-(2-{[3-(4,7-dimethoxy-1H-benzoimidazol-2-yl)-propyl]-methyl-amino}-ethyl)-5-phenyl-bicyclo[2.2.2]oct-5-en-2-yl ester] gave an IC50 [1] of 793 nM.
